Laboratory results as given in ChEMBL document CHEMBL1156238, “Allosteric inhibitors of hepatitis C virus NS5B polymerase thumb domain site II: structure-based design and synthesis of new templates” (Bioorg Med Chem, 2010).
Calls of active or inactive are those of the source. The rule behind the calls is not given here.

Experiments:
[1] = Cytotoxicity against human HBI10A cells; assay type: cell-based
[2] = Inhibition of HCV genotype 2b NS5B polymerase deltaC21 mutant; parameters: species or system Hepatitis C virus subtype 2b
Hepatitis C virus [3] = assay: Antiviral activity against Hepatitis C virus H2B2; assay type: functional, organism-based, Hepacivirus hominis
Hepatitis C virus [4] = assay: Inhibition of HCV genotype 1b NS5B polymerase deltaC21 mutant; assay type: functional, Hepatitis C virus subtype 1b
Hepatitis C virus [5] = assay: Inhibition of HCV genotype 1b NS5B polymerase deltaC21 M423K mutant at 2 uM; assay type: functional; settings: Hepatitis C virus subtype 1b
[6] = Selectivity index, ratio of CC50 for human HBI10A cells to EC50 for Hepatitis C virus; assay type: toxicity, cell-based; settings: read-out: Ratio CC50/EC50
Hepatitis C virus [7] = assay: Antiviral activity against HCV infected in human HBI10A cells; assay type: functional, organism-based, Hepacivirus hominis
[8] = Cytotoxicity against human HBI10A cells at 20 uM; assay type: cell-based
Hepatitis C virus [9] = assay: Inhibition of HCV genotype 1b NS5B polymerase deltaC21 M423K mutant; assay type: functional, Hepatitis C virus subtype 1b
Hepatitis C virus [10] = assay: Inhibition of HCV genotype 1b NS5B polymerase deltaC21 M423K mutant at 50 uM; assay type: functional; settings: Hepatitis C virus subtype 1b
Hepatitis C virus [11] = assay: Inhibition of HCV genotype 1b NS5B polymerase deltaC21 mutant at 50 uM; assay type: functional; settings: Hepatitis C virus subtype 1b
Hepatitis C virus [12] = assay: Antiviral activity against Hepatitis C virus at 20 uM; settings: Hepacivirus hominis
[13] = Hepatitis C virus, H2B2, read-out: EC50

SMILES | CC50 ([1]; HBI10A cells, read-out: CC50) | IC50 [2] | EC50 (Hepatitis C virus [3]; [13]) | IC50 (Hepatitis C virus [4]; read-out: IC50) | selectivity ratio [6] | EC50 (Hepatitis C virus [7]) | other results
O=C1c2cccc3c(NCCO)ccc(c23)C(=O)N1c1cccc(Br)c1 | 68 µM | 180 nM | 18 µM | 20 nM |  |  | inhibition (Hepatitis C virus [5]): inactive
O=c1c2ccc(N[C@H]3CC[C@@H](C(=O)O)CC3)c3c2n(c(=O)n1-c1cccc(Cl)c1)CCC3 | > 100 µM | 490 nM | 17 µM | 1100 nM | > 7.8 | 13 µM | 
O=c1c2ccc(NCCO)cc2n2ccnc2n1-c1cccc(Cl)c1 |  | > 10000 nM |  | > 10000 nM |  | > 100 µM | CC50 ([1]; hbi10a): Not Active; EC50 (Hepatitis C virus [3]): Not Active
Cc1c(NCCO)ccc2c(=O)n(-c3cccc(Cl)c3)c3nncn3c12 |  | 5300 nM |  | 380 nM |  | 14 µM | CC50 ([1]; hbi10a): Not Active; EC50 (Hepatitis C virus [3]): Not Active
O=C(O)c1cccc(CN2CCn3c(=O)n(-c4cccc(Cl)c4)c(=O)c4cccc2c43)c1 | > 100 µM | 2000 nM | > 100 µM | 130 nM | > 3.7 | 27 µM | 
Cn1c(=O)n(-c2cccc(Cl)c2)c(=O)c2ccc(NCCO)cc21 | > 100 µM | 8200 nM | > 100 µM | 2000 nM |  | 40 µM | 
O=c1c2ccc(NC3CCN(Cc4ccccc4)CC3)c3c2n(c(=O)n1-c1cccc(Cl)c1)CCC3 | 10 µM | 140 nM | 4.9 µM | 8 nM | 5.9 | 1.7 µM | 
C=C[C@H]1C[N@@]2CC[C@H]1C[C@H]2[C@H](O)c1ccnc2ccc(OC)cc12 [QUININE] |  |  |  |  |  |  | inhibition (INH) [8]: Not Active
CC1CCC(Nc2ccc3c(=O)n(-c4cccc(Cl)c4)c(=O)n(C)c3c2)CC1 (stereo unspecified) | 36 µM | 2300 nM | 16 µM | 5200 nM | 1.6 | 22 µM | 
O=C(NCCO)c1cccc2c(=O)n(-c3cccc(Cl)c3)c(=O)[nH]c12 |  | > 10000 nM |  | > 10000 nM |  | < 100 µM | CC50 ([1]; hbi10a): Not Active; EC50 (Hepatitis C virus [3]): Not Active
COc1cccc2c1C(=O)c1c(O)c3c(c(O)c1C2=O)C[C@@](O)(C(=O)CO)C[C@@H]3O[C@H]1C[C@H](N)[C@H](O)[C@H](C)O1 [DOXORUBICIN] | < 0.3 µM |  |  |  | < 1 |  | IC50 (Hepatitis C virus [9]): 12 µM; IC50 (Hepatitis C virus [4]): 2600 nM
C=C[C@H]1CN2CC[C@H]1C[C@H]2[C@H](O)c1ccnc2ccc(OC)cc12 |  |  |  |  |  |  | inhibition (Hepatitis C virus [10]): inactive; inhibition (Hepatitis C virus [11]): inactive; inhibition (Hepatitis C virus [12]): inactive
O=C(O)c1cc(Cl)cc(-n2c(=O)c3ccc(NC4CCN(Cc5ccccc5)CC4)c4c3n(c2=O)CCC4)c1 | 42 µM | 720 nM | 20 µM | 160 nM | 10 | 4.1 µM | 
O=c1[nH]c2cc(NCCO)ccc2c(=O)n1-c1cccc(Cl)c1 | > 100 µM | > 50000 nM | > 100 µM | 5500 nM |  | > 100 µM | 
Cn1c(=O)n(-c2cccc(Cl)c2)c(=O)c2ccc(NC3CCN(Cc4ccccc4)CC3)cc21 | 9.9 µM | 1300 nM | > 25 µM | 75 nM | 0.9 | 11 µM | 
O=C(NC1CCN(Cc2ccccc2)CC1)c1cccc2c(=O)n(-c3cccc(Cl)c3)c(=O)[nH]c12 | 7 µM | 730 nM | 6.6 µM | 76 nM | 1.8 | 4 µM | 
CC(C)CNc1ccc2c(=O)n(-c3cccc(Cl)c3)c(=O)n(C)c2c1 | > 100 µM | 5000 nM | > 100 µM | 3000 nM | > 4 | 24 µM | 
Cc1c(NC2CCN(Cc3ccccc3)CC2)ccc2c(=O)n(-c3cccc(Cl)c3)c3nncn3c12 | 9 µM | 400 nM | < 100 µM | 6600 nM | 3 | 3 µM | 
O=C1c2cccc3c(NC4CCN(Cc5ccccc5)CC4)ccc(c23)C(=O)N1c1cccc(Br)c1 | 5.2 µM | 43 nM | 1.7 µM | < 14 nM | 2.4 | 2.2 µM | 
O=c1c2ccc(NCCO)c3c2n(c(=O)n1-c1cccc(Cl)c1)CCC3 | 12 µM | 670 nM | 26 µM | 200 nM | 0.8 | 15 µM | 
CC[n+]1c(-c2ccccc2)c2cc(N)ccc2c2ccc(N)cc21 [HOMIDIUM BROMIDE] | 0.7 µM |  |  | 810 nM | 0.85 |  | IC50 (Hepatitis C virus [9]): 3.8 µM
O=c1c2ccc(NC3CCN(Cc4ccccc4)CC3)cc2n2ccnc2n1-c1cccc(Cl)c1 | 3.2 µM | > 5000 nM | 2.6 µM | 840 nM | 0.9 | 3.7 µM | 
O=C1c2cccc3c(NCCO)ccc(c23)C(=O)N1c1cccc(Cl)c1 | 57 µM | 210 nM | 35 µM | 39 nM | 6.8 | 8.4 µM | 
Cc1c(NCCO)ccc2c(=O)n(-c3cccc(Cl)c3)c(=O)n(C)c12 | > 100 µM | 5300 nM | > 100 µM | 2400 nM | > 2.5 | 40 µM | 
O=c1c2cccc3c2n(c(=O)n1-c1cccc(Cl)c1)CCN3CCCO |  | 7700 nM | > 100 µM | 5200 nM |  | < 100 µM | CC50 ([1]; hbi10a): Not Active
